Assay results: patent US6828327B2, “Macroheterocylic compounds useful as kinase inhibitors” (Ortho-McNeil Pharmaceutical, Inc., priority 2000, dated 2004)

Experiments:
PKC α [1] = biological target: T1, PKC α (Homo sapiens, UniProt P17252); assay: Protein Kinase C Scintillation Proximity Assay (SPA), PKC-α; format: biochemical; set-up: purchased PanVera, Madison Wis; host or cells: baculovirus expression vector; details: inhibition value, recombinant human isozyme, 1 μM ATP
Protocol: The binding activity of a compound for Protein Kinase C (PKC) was assessed using a homogeneous Scintillation Proximity Assay according to the procedure below.
The reaction was incubated for 15 min at 30° C. Reactions were terminated by the addition of streptavidin-coated SPA beads (Amersham) in a solution containing 1 mM EGTA, 10 mM EDTA and 100 μM ATP. Beads were allowed to settle overnight and the plates read in a Wallac MICROBETA scintillation counter (PerkinElmer Life sciences, Wellesley, Mass.).

PKC α [2] = biological target: T1, PKC α; assay: Biotinylated Peptide Substrate Assay, PKC α; format: biochemical; details: 10 μM ATP; >10 = no 50% inhibition at highest dose tested
Protocol: Biotinylated peptide substrates were selected from the literature as appropriate for the enzyme being evaluated.
Assay conditions vary slightly for each protein kinase, for example, insulin receptor kinase requires 10 mM MnCl2 for activity and Calmodulin-dependent protein kinase requires calmodulin and 10 mM CaCl2. […] Enzyme was diluted in 50 mM Tris-HCl pH=8.0, 0.1% BSA and added to each well. The reaction was incubated for one hour at 30° C. in the presence of compound. After one hour the reaction mix was aspirated from the plate and the plate was washed with PBS containing 100 mM EDTA. The plate was read on a scintillation counter to determine ^33P-γ-ATP incorporated into the immobilized peptide. […] A maximum and minimum signal for the assay was determined on each plate.

| Structure (SMILES) | IC50 (PKC α [1]) [µM] | PKC α Kinase Assay (IC50 uM) (PKC α [2]) [µM] |
| --- | --- | --- |
| O=C1NC(=O)C2=C1c1cn(c3ccccc13)CCOCCOCCn1cc2c2cccnc21 [Cpd 10] | 5.36 | >10 |
| O=C1NC(=O)C2=C1c1cn(c3ccccc13)CCOCCOCCOCCn1cc2c2cccnc21 [Cpd 11] | 1.21 | >10 |
